From article PMC10577883, “Design and Optimization of Novel Competitive, Non-peptidic, SARS-CoV-2 M^pro Inhibitors” (ACS Medicinal Chemistry Letters, 2023)

Tests used:
in vitro [1] = settings: CD-1, mouse, microsomes
Protocol: Metabolic Stability Assay
(§1) Liver Microsome Stability Assay Protocol
(§2) Human liver microsomes (HLMs, 20 mg/mL), CD-1 mouse liver microsomes (MLMs, 20 mg/mL), Sprague Dawley
(§3) rat liver microsomes (RLMs, 20 mg/mL) were purchased from Xenotech. NADPH was purchased from Sigma-
(§4) Aldrich and prepared in 10 mM stock solutions of distilled H2O (InvitrogenTM UltraPureTM). Verapamil and
(§5) diphenhydramine were both purchased from Sigma-Aldrich and served as positive controls for LM stability assays.
(§6) Test compounds and positive controls were initially dissolved in DMSO to make 10 mM stock solutions. Sample
(§7) solutions were then further diluted in 100% MeCN to 500 μM. Next, the reactions were prepared by mixing human
(§8) or mouse liver microsomes (55 μL) with potassium phosphate buffer (100 mM, 928 μL) in 1.5 mL Eppendorf tubes.
(§9) The test compounds (6.6 μL of 500 μM solution) were subsequently added to the suspensions, and the reaction
(§10) mixtures were incubated at 37 °C for 5 min. Afterward, the liver microsome reactions were initiated with 110 μL
(§11) of 10 mM NADPH and further incubated at 37 °C for the designated time course of the study. This procedure
(§12) provided experiments with a final volume of 1100 μL (0.6% organic solvent content) and a final test compound
(§13) concentration of 3 μM. Aliquots (100 μL) were removed from each reaction mixture in duplicate at 0, 5, 10, 15,
(§14) and 30 min time intervals and quenched with 100 μL of cold internal standard solution (ISTD, 2 μM
(§15) 7-ethoxy-d 5-coumarin in MeOH or MeCN). Quenched aliquots were then centrifuged at 12,500 g for 5-10 min, and
(§16) the resulting supernatants were withdrawn and placed in LC-MS vials to be analyzed by LC-MS/MS (Agilent
(§17) G6460C QQQ MS coupled with an Infinity II 1260 HPLC). Each test compound was run in tandem with positive and
(§18) negative control experiments for quality assurance. Positive control reactions were conducted at a final volume
(§19) of 550 μL for a single run of each time point. Lastly, the negative control experiment was conducted with test
(§20) compounds and liver microsomes in the absence of NADPH (150 μL) and analyzed at the 30 min time point.
(§21) Data Analysis. Each data point was analyzed in triplicate using in-between blank washes to avoid carry over and
(§22) to equilibrate the column for the subsequent runs. Averages of these triplicates for individual compounds at each
(§23) time point were then normalized to the data at 0 min, representing 100% test compound remaining or 0%
(§24) metabolism. Half-lives (t 1/2) were calculated by plotting ln of % test compound remaining versus time and
(§25) performing linear regression to determine slope.
(§26) Instrumentation and LC-MS/MS Method Development
(§27) LC-MS/MS analyses were conducted on an Agilent 1260 Infinity II HPLC equipped with an Agilent G6460 triple
(§28) quadrupole mass spectrometer (Agilent Technologies, USA). Reverse-phase HPLC separation for each compound
(§29) m) column maintained at 40 °C. The mobile phase used during analyses consisted of either MeOH-H2O (0.1% FA)
(§30) or MeCN-H2O (0.1% FA) at a flow rate of 0.5 mL/min. Each method was developed in the presence of the internal
(§31) standard (ISTD), 7-ethoxy-d 5-coumarin. Precursor and product ion detection was performed with Agilent Jet
(§32) Stream electrospray positive ionization (ESI+) in multiple reaction monitoring (MRM) mode. All MRM transitions,
(§33) MS conditions were as follows: dwell time of 100 ms; gas flow of 10 L/min; nebulizer pressure of 45 psi; delta EMV
(§34) of 200 V. Lastly, all acquired data was processed using Agilent 6460 Quantitative Analysis software.

in vitro [2] = settings: human, microsomes
Protocol: Metabolic Stability Assay
as §1, §2, §3, §4, §5, §6, §7, §8, §9, §10, §11, §12, §13, §14, §15, §16, §17, §18, §19, §20, §21, §22, §23, §24, §25, §26, §27, §28, §29, §30, §31, §32, §33, §34

[3] = Liver microsome metabolite identification (LC-HRMS); format: in vitro ADME
Protocol: Figure S15: Stability of 45 in rat liver microsomes (RLM) at 37 °C
Table S17: Stability of 43 in rat liver microsomes (RLM) at 37 °C
Time Response ratio Average RR Rel % ln
Metabolite identification
Procedure for Liver Microsome Metabolite Identification Assay: Test compounds and positive controls were dissolved in 100% DMSO to make 10 mM stock solutions. The 10 mM stock solutions of test and control […]
(1 picture or pasted object on this page, not shown here) […]
compounds were further diluted in potassium phosphate buffer (100 mM, pH 7.4) to 500 μM to ensure that the organic solvent content was < 0.2%. The liver microsome (HLM or MLM) assay was prepared in a 1.5 mL Eppendorf tube with a final volume of […] for duplicate runs. Each reaction contained phosphate buffer (374 μL), liver microsomes (550 μL), and test compound (66 μL of 500 resulting in a final concentration of 30 μM), μM for the […]
test compound. […] Aliquots (100 μL) were removed in […]
MS analysis was performed using full scan from a mass range of 100-700 m/z at 60k resolution with data dependent MS/MS and MSn programs enabled for the top 5 ions detected for each scan. Compounds are detected based on their MS1 precursor ion accurate mass m/z and identified with matching theoretical and observed accurate mass MS1 ions with interpretation of accurate mass MS/MS spectra from expected […]

in vitro [4] = settings: Sprague-Dawley, rat, microsomes
Protocol: Metabolic Stability Assay
as §1, §2, §3, §4, §5, §6, §7, §8, §9, §10, §11, §12, §13, §14, §15, §16, §17, §18, §19, §20, §21, §22, §23, §24, §25, §26, §27, §28, §29, §30, §31, §32, §33, §34

CYP3A = system: CYP3A; set-up: method as in PMID 37171749; settings: cited from earlier work
[5] = system: SARS-CoV-2-Nluc reporter virus; experiment: microbe, parasite or virus in culture; format: cell-based; settings: Severe acute respiratory syndrome coronavirus 2; VeroE6/TMPRSS2 cells; parentheses denote 95% confidence intervals

Structure (SMILES): Cn1cc(-c2cc(-c3cc(Cl)c(F)c(OCc4ccccc4Cl)c3)c(=O)n(-c3cccnc3)c2)c(=O)[nH]c1=O [Compound 4]
- half-life at 3 µM (in vitro [1]): 2.4 min
- remaining at 5 min, 3 µM (in vitro [1]): 9.41%
- remaining at 10 min, 3 µM (in vitro [1]): 5.25%
- remaining at 0.25 h, 3 µM (in vitro [1]): 2.96%
- remaining at 5 min, 3 µM (in vitro [2]): 46.1%
- remaining at 10 min, 3 µM (in vitro [2]): 22.7%
- remaining at 0.25 h, 3 µM (in vitro [2]): 16.3%
- half-life at 3 µM (in vitro [2]; HLM t1/2): 7.2 min
- major microsomal metabolite / metabolic route [3]: loss of the ortho-chlorobenzyl moiety
- half-life at 3 µM (in vitro [4]): 4.8 min
- remaining at 5 min, 3 µM (in vitro [4]): 63.6%
- remaining at 10 min, 3 µM (in vitro [4]): 26.6%
- remaining at 0.25 h, 3 µM (in vitro [4]): 17.4%

Structure (SMILES): Cn1cnc(Cn2c(=O)[nH]/c(=N\c3cc4cn(C)nc4cc3Cl)n(Cc3cc(F)c(F)cc3F)c2=O)n1 [Compound S-217622, ensitrelvir, reference compound]
- CYP3A inhibition (CYP3A): strong CYP3A inhibitor
- EC50 [5]: 230 nM
